SMILES strings stand for the structures. Counter-ions that a name gives are not always drawn.

In this assay the target is T1, Thromboxane A2 receptor (Rattus norvegicus, UniProt P34978).
T1 sequence (P34978 1-341): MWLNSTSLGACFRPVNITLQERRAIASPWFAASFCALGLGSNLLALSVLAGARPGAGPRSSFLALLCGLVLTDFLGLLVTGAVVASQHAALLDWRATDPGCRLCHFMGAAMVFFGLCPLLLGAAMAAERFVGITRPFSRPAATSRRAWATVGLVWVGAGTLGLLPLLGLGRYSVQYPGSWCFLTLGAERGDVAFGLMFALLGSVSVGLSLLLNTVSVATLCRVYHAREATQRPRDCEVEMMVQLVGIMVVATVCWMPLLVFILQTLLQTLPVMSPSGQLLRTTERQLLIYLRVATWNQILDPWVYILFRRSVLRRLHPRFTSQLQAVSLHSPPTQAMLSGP
In words: Thromboxane A2 receptor antagonistic action (inhibitory action of U-46619-induced contractions of rat aortic strips). The note with it: isolated helical strips of rat aorta precontracted with 3×10^-8 M U-46619; read-out: IC50 (the concentrations which inhibited the contraction by 50%). It counts as cell-based.
As to `CC(C)c1ccc2c(CCCCNS(=O)(=O)c3ccccc3)cc(S(=O)(=O)O)c-2cc1` [sodium salt], the IC50 was 17 nM. With `CC(C)c1ccc2c(C/C=C/CNS(=O)(=O)c3ccccc3)cc(C(=O)O)c-2cc1` [Compound 69, 6-isopropyl-3-[4-(benzenesulfonylamino)-trans-2-butenyl]-azulene-1-carboxylic acid] the figure was 460 nM; with `CC(C)c1ccc2c(C/C=C\CNS(=O)(=O)c3ccccc3)cc(C(=O)O)c-2cc1` [Compound 68, 6-isopropyl-3-[4-(benzenesulfonylamino)-cis-2-butenyl]-azulene-1-carboxylic acid], 52 nM. `CC(C)c1ccc2c(CCCCNS(=O)(=O)c3ccc(Cl)c(Cl)c3)cc(S(=O)(=O)O)c-2cc1` [Compound 49, 6-Isopropyl-3-[4-(3,4-dichlorobenzenesulfonylamino)butyl-azulene-1-sulfonic acid sodium salt]: the IC50 is 15 nM.

As to `CC(C)c1ccc2c(CCCCNS(=O)(=O)c3ccccc3)cc(C(=O)O)c-2cc1` [Compound 17, 6-Isopropyl-3-[4-(benzenesulfonylamino)butyl]-azulene-1-carboxylic acid], the IC50 was 78 nM. For `CC(C)c1ccc2c(CCCCNS(=O)(=O)c3ccc(F)cc3)cc(C(=O)O)c-2cc1` [Compound 24, 6-Isopropyl-3-[4-(4-fluorobenzenesulfonylamino)butyl]-azulene-1-carboxylicacid], the IC50 amounted to 11 nM. `CC(C)c1ccc2c(CCC(C)(C)CNS(=O)(=O)c3ccccc3)cc(C(=O)O)c-2cc1` [Compound 65, 6-isopropyl-3-[3,3-dimethyl-4-(benzenesulfonylamino)butyl]-azulene-1-carboxylic acid]: the IC50 came to 50 nM. On to `O=C(O)c1cc(CCCCCCNS(=O)(=O)c2ccccc2)c2cccccc1-2` [Compound 5, 3-[6-(Benzenesulfonylamino)hexyl]-azulene-1-carboxylic acid], for which the IC50 worked out at 140 nM. For `CC(C)c1ccc2c(CCCCNS(=O)(=O)c3ccc(Br)cc3)cc(S(=O)(=O)O)c-2cc1` [Compound 50, 6-Isopropyl-3-[4-(P-bromobenzenesulfonylamino)butyl]-azulene-1-sulfonic ac id sodium salt], the IC50 worked out at 1.7 nM. In the case of `CC(C)c1ccc2c(CCC[C@@H](C)NS(=O)(=O)c3ccccc3)cc(C(=O)O)c-2cc1` [Compound 63, 6-isopropyl-3-[(4R)-(benzenesulfonylamino)pentyl]-azulene-1-carboxylicacid], the IC50 worked out at 420 nM. With `CC(C)c1ccc2c(CCCCCCNS(=O)(=O)c3ccccc3)cc(C(=O)O)c-2cc1` [Compound 19, 6-Isopropyl-3-[6-(benzenesulfonylamino)hexyl]-azulene-1-carboxylic acid] the figure was 70 nM; with `CC(C)c1cccc2c(CCCCCCNS(=O)(=O)c3ccccc3)cc(C(=O)O)c-2c1` [Compound 12, 7-Isopropyl-3-[6-(benzenesulfonylamino)hexyl]-azulene-1-carboxylic acid], 920 nM; with `CC(C)c1ccc2c(CCCCNS(=O)(=O)c3ccc([N+](=O)[O-])cc3)cc(C(=O)O)c-2cc1` [Compound 32, 6-Isopropyl-3-[4-(4-nitrobenzenesulfonylamino)butyl]-azulene-1-carboxylic acid], 13 nM. Turning to `CC(C)c1ccc2c(CCCCNS(=O)(=O)c3ccc(Cl)cc3)cc(C(=O)O)c-2cc1` [Compound 25, 6-Isopropyl-3-[4-(4-chlorobenzenesulfonylamino)butyl]-azulene-1-carboxylicacid], the IC50 was found to be 5.3 nM. Next, `COc1ccc(S(=O)(=O)NCCCCc2cc(C(=O)O)c3ccc(C(C)C)ccc2-3)cc1` [Compound 23, 6-Isopropyl-3-[4-(4-methoxybenzenesulfonylamino)butyl]-azulene-1-carboxylic acid]: 16 nM; `CC(C)c1ccc2c(CC[C@@H](C)CNS(=O)(=O)c3ccccc3)cc(C(=O)O)c-2cc1` [Compound 58, 6-isopropyl-3-[(3R)-methyl-4-(benzenesulfonylamino)butyl]-azulene-1-carboxylic acid]: 35 nM. For the compound `CC(C)c1ccc2c(CCCCNS(=O)(=O)c3ccc(I)cc3)cc(C(=O)O)c-2cc1` [Compound 28, 6-Isopropyl-3-[4-(4-iodobenzenesulfonylamino)butyl]-azulene-1-carboxylic acid], the IC50 was 5.1 nM. On to `CC(C)c1ccc2c(CCCCNS(=O)(=O)c3ccc(Cl)c(Cl)c3)cc(C(=O)O)c-2cc1` [Compound 26, 6-Isopropyl-3-[4-(3,4-dichlorobenzenesulfonylamino)butyl]-azulene-1-carboxylic acid], for which the IC50 was determined as 43 nM. In the case of `CC(C)c1ccc2c(CCCCNS(=O)(=O)c3ccccc3)cc(CC(=O)O)c-2cc1` [Compound 33, 2-[6-Isopropyl-3-[4-(benzenesulfonylamino)butyl]-azulene-1-yl]-acetic acid], the IC50 amounted to 300 nM. In the case of `CC(C)c1ccc2c(C[C@@H](C)CCNS(=O)(=O)c3ccccc3)cc(C(=O)O)c-2cc1` [Compound 57, 6-isopropyl-3-[(2R)-methyl-4-(benzenesulfonylamino)butyl]-azulene-1-carboxylic acid], the IC50 came out at 36 nM. With `CC(C)c1ccc2c(CC[C@H](C)CNS(=O)(=O)c3ccccc3)cc(C(=O)O)c-2cc1` [Compound 59, 6-isopropyl-3-[(3S)-methyl-4-(benzenesulfonylamino)butyl]-azulene-1-carboxylic acid] the figure was 16 nM; with `CC(C)c1ccc2c(CC(C)(C)CCNS(=O)(=O)c3ccccc3)cc(C(=O)O)c-2cc1` [Compound 64, 6-isopropyl-3-[2,2-dimethyl-4-(benzenesulfonylamino)butyl]-azulene-1-carboxylic acid], 690 nM; with `O=C(O)c1cc(CCNS(=O)(=O)c2ccccc2)c2cccccc1-2` [Compound 1, 3-[2-(Benzenesulfonylamino)ethyl]-azulene-1-carboxylic acid], 21000 nM. For `CC(C)c1ccc2c(CCCCNS(=O)(=O)c3ccc(C(F)(F)F)cc3)cc(C(=O)O)c-2cc1` [Compound 31, 6-Isopropyl-3-[4-(4-trifluoromethylbenzenesulfonylamino)butyl]-azulene-1-carboxylic acid], the IC50 came out at 12 nM. On to `O=C(O)c1cc(CCCCCCCCNS(=O)(=O)c2ccccc2)c2cccccc1-2` [Compound 7, 3-[8-(Benzenesulfonylamino)octyl]-azulene-1-carbaxylic acid], for which the IC50 came out at 15000 nM.

For the compound `CC(C)c1cccc2c(CCNS(=O)(=O)c3ccccc3)cc(C=CC(=O)O)c-2c1` [Compound 14, 3-[7-Isopropyl-3-(2-(benzenesulfonylamino)ethyl)-azulene-1-yl]-2-propenoicacid], the IC50 is 21000 nM. In the case of `CC(C)c1ccc2c(CCCCN(C)S(=O)(=O)c3ccccc3)cc(C(=O)O)c-2cc1` [Compound 37, 6-Isopropyl-3-[4-(N-methylbenzenesulfonylamino)butyl]-azulene-1-carboxylicacid], the IC50 is 10000 nM. With `CC(C)c1cccc2c(CCCCNS(=O)(=O)c3ccccc3)cc(C(=O)O)c-2c1` [Compound 10, 7-Isopropyl-3-[4-(benzenesulfonylamino)butyl]-azulene-1-carboxylic acid], the IC50 is 3100 nM. Consider `CC(C)c1ccc2c(CCCCNS(=O)(=O)c3ccc(I)cc3)cc(S(=O)(=O)O)c-2cc1` [Compound 51, 6-Isopropyl-3-[4-(P-iodobenzenesulfonylamino)butyl]-azulene-1-sulfonicacid sodium salt], for which the IC50 was 1.6 nM. As for `CC(C)c1ccc2c(CCCCNS(=O)(=O)c3ccc(F)cc3)cc(S(=O)(=O)O)c-2cc1` [Compound 47, 6-Isopropyl-3-[4-(P-fluorobenzenesulfonylamino)butyl]-azulene-1-sulfonic acid sodium salt], the IC50 is 4.4 nM.

With `CC(C)c1ccc2c(CCNS(=O)(=O)c3ccccc3)cc(C(=O)O)c-2cc1` [Compound 15, 6-Isopropyl-3-[2-(benzenesulfonylamino)ethyl]-azulene-1-carboxylic acid], the IC50 amounted to 60000 nM. For `CC(C)c1ccc2c(C[C@H](C)CCNS(=O)(=O)c3ccccc3)cc(C(=O)O)c-2cc1` [Compound 56, 6-isopropyl-3-[(2S)-methyl-4-(benzenesulfonylamino)butyl]-azulene-1-carboxylic acid], the IC50 was 160 nM. Next, `Cc1ccc(S(=O)(=O)NCCCCc2cc(C(=O)O)c3ccc(C(C)C)ccc2-3)cc1` [Compound 22, 6-Isopropyl-3-[4-(4-methylbenzenesulfonylamino)butyl]-azulene-1-carboxylicacid]: 20 nM. Turning to `CC(C)c1ccc2c(CCCCNS(=O)(=O)c3ccc(Br)cc3)cc(C(=O)O)c-2cc1` [Compound 27, 6-Isopropyl-3-[4-(4-bromobenzenesulfonylamino)butyl]-azulene-1-carboxylic acid], the IC50 is 5.3 nM. Take `CC(C)c1ccc2c(C(=O)O)cc([C@H](C)CCCNS(=O)(=O)c3ccccc3)c-2cc1` [Compound 54, 6-isopropyl-3-[(1R)-methyl-4-(benzenesulfonylamino)butyl]-azulene-1-carbolxylic acid]: the IC50 was found to be 210 nM. Turning to `CC(C)c1ccc2c(C(=O)O)cc([C@@H](C)CCCNS(=O)(=O)c3ccccc3)c-2cc1` [Compound 55, 6-isopropyl-3-[(1S)-methyl-4-(benzenesulfonylamino)butyl]-azulene-1-carboxylic acid], the IC50 is 44 nM. With `O=C(O)c1cc(CCCCNS(=O)(=O)c2ccccc2)c2cccccc1-2` [Compound 3, 3-[4-(Benzenesulfonylamino)butyl]-azulene-1-carboxylic acid] the figure was 570 nM.

For the origin of these results see patent US5081152A, “Azulene derivatives as thromboxane A2 and prostaglandin endoperoxide receptor antagonist” (Kotobuki Seiyaku Co., Ltd., priority 1989, dated 1992).
